Like-named read-outs stand apart in the source and are kept apart here.
Key:
Assay in all cases: Test C pre/postemergence
Format in all cases: in vivo
[1] = tested on: eastern black nightshade (Solanum ptycanthum); conditions: Solanum, pre-emergence, Preemergence, scale 0 to 100, 0 no effect, 100 complete control, read-out: Plant response rating, Nightshade
How it was run: (§1)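 Test compounds, formulated in a non-phytotoxic solvent mix with surfactant, were applied to freshly planted seeds and, at the same time, to emerged plants at 1- to 4-leaf stage (2 to 18 cm). After 12 to 14 days in the greenhouse, response was scored visually versus controls, 0 = no effect, 100 = complete control.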

[2] = tested on: pigweed (Amaranthus retroflexus); conditions: Amaranthus retroflexus; for pest or weed control at 31 g/ha: 31 g ai/ha; for pest or weed control at 62 g/ha: 62 g ai/ha
How it was run: as §1

[3] = tested on: lambsquarters (Chenopodium album); conditions: Chenopodium album; for pest or weed control at 31 g/ha: 31 g ai/ha; for pest or weed control at 62 g/ha: 62 g ai/ha; for pest or weed control at 125 g/ha: 125 g ai/ha
How it was run: as §1

[4] = tested on: goosegrass (Eleusine indica); conditions: Eleusine indica; for pest or weed control at 31 g/ha: 31 g ai/ha; for pest or weed control at 62 g/ha: 62 g ai/ha; for pest or weed control at 125 g/ha: 125 g ai/ha
How it was run: as §1

[5] = tested on: johnsongrass (Sorghum halepense); conditions: Sorghum halepense; for pest or weed control at 31 g/ha: 31 g ai/ha; for pest or weed control at 62 g/ha: 62 g ai/ha; for pest or weed control at 125 g/ha: 125 g ai/ha
How it was run: as §1

[6] = tested on: velvetleaf (Abutilon theophrasti); conditions: Abutilon theophrasti; for pest or weed control at 31 g/ha: 31 g ai/ha; for pest or weed control at 62 g/ha: 62 g ai/ha
How it was run: as §1

[7] = post-emergence, Postemergence, read-out: Plant response rating (scale of 0 to 100), Pigweed
[8] = pre-emergence, Preemergence, scale 0 to 100, 0 no effect, 100 complete control, read-out: Plant response rating, Pigweed
[9] = post-emergence, Postemergence, read-out: Plant response rating (scale of 0 to 100), Lambsquarters
[10] = pre-emergence, Preemergence, scale 0 to 100, 0 no effect, 100 complete control, read-out: Plant response rating, Lambsquarters
[11] = post-emergence, Postemergence, read-out: Plant response rating (scale of 0 to 100), Goosegrass
[12] = pre-emergence, Preemergence, scale 0 to 100, 0 no effect, 100 complete control, read-out: Plant response rating, Goosegrass
[13] = post-emergence, Postemergence, read-out: Plant response rating (scale of 0 to 100), Johnsongrass
[14] = pre-emergence, Preemergence, scale 0 to 100, 0 no effect, 100 complete control, read-out: Plant response rating, Johnsongrass
[15] = post-emergence, Postemergence, read-out: Plant response rating (scale of 0 to 100), Velvetleaf
[16] = pre-emergence, Preemergence, scale 0 to 100, 0 no effect, 100 complete control, read-out: Plant response rating, Velvetleaf

Nc1nc(C2CC2)nc(C(=O)OCc2ccccc2)c1Cl [Compound 78, phenylmethyl 6-amino-5-chloro-2-cyclopropyl-4-pyrimidinecarboxylate]
55%: pest or weed control at 16 g/ha ([2]; pre-emergence, Preemergence, 16 g ai/ha, scale 0 to 100, 0 no effect, 100 complete control, read-out: Plant response rating, Pigweed) | pest or weed control at 31 g/ha [6, 16]
20%: pest or weed control at 125 g/ha ([5]; post-emergence, Postemergence, scale 0 to 100 (0 no effect, 100 complete control), read-out: Johnsongrass plant response rating) | pest or weed control at 62 g/ha [5, 14]
50%: pest or weed control at 31 g/ha [2, 7] | pest or weed control at 250 g/ha ([4]; post-emergence, Postemergence, 250 g ai/ha, scale 0 to 100, read-out: Plant response rating, Goosegrass) | pest or weed control at 125 g/ha ([5]; pre-emergence, Preemergence, scale 0 to 100, read-out: Plant response rating, Johnsongrass) | pest or weed control at 31 g/ha [6, 15]
30%: pest or weed control at 31 g/ha ([1]; 31 g ai/ha)
80%: pest or weed control at 62 g/ha [2, 7] | pest or weed control at 62 g/ha [3, 10] | pest or weed control at 125 g/ha ([3]; pre-emergence, Preemergence, scale 0 to 100, read-out: Plant response rating, Lambsquarters) | pest or weed control at 62 g/ha [6, 15]
10%: pest or weed control at 31 g/ha [5, 13] | pest or weed control at 62 g/ha [5, 13] | pest or weed control at 31 g/ha [5, 14] | pest or weed control at 16 g/ha ([6]; pre-emergence, Preemergence, 16 g ai/ha, scale 0 to 100, 0 no effect, 100 complete control, read-out: Plant response rating, Velvetleaf)
0%: pest or weed control at 16 g/ha ([1]; 16 g ai/ha) | pest or weed control at 16 g/ha ([3]; pre-emergence, Preemergence, 16 g ai/ha, scale 0 to 100, 0 no effect, 100 complete control, read-out: Plant response rating, Lambsquarters) | pest or weed control at 31 g/ha [4, 11] | pest or weed control at 62 g/ha [4, 11] | pest or weed control at 16 g/ha ([4]; pre-emergence, Preemergence, 16 g ai/ha, scale 0 to 100, 0 no effect, 100 complete control, read-out: Plant response rating, Goosegrass) | pest or weed control at 31 g/ha [4, 12] | pest or weed control at 62 g/ha [4, 12] | pest or weed control at 125 g/ha ([4]; pre-emergence, Preemergence, scale 0 to 100, read-out: Plant response rating, Goosegrass) | pest or weed control at 16 g/ha ([5]; pre-emergence, Preemergence, 16 g ai/ha, scale 0 to 100, 0 no effect, 100 complete control, read-out: Plant response rating, Johnsongrass)
95%: pest or weed control at 125 g/ha ([2]; post-emergence, Postemergence, 125 g ai/ha, scale 0 to 100 (0 no effect, 100 complete control), read-out: Pigweed plant response rating) | pest or weed control at 62 g/ha [3, 9] | pest or weed control at 125 g/ha ([3]; post-emergence, Postemergence, scale 0 to 100 (0 no effect, 100 complete control), read-out: Lambsquarters plant response rating) | pest or weed control at 125 g/ha ([6]; post-emergence, Postemergence, 125 g ai/ha, scale 0 to 100 (0 no effect, 100 complete control), read-out: Velvetleaf plant response rating)
100%: pest or weed control at 250 g/ha ([2]; post-emergence, Postemergence, 250 g ai/ha, scale 0 to 100, read-out: Plant response rating, Pigweed) | pest or weed control at 250 g/ha ([3]; post-emergence, Postemergence, 250 g ai/ha, scale 0 to 100, read-out: Plant response rating, Lambsquarters) | pest or weed control at 250 g/ha ([6]; post-emergence, Postemergence, 250 g ai/ha, scale 0 to 100, read-out: Plant response rating, Velvetleaf)
40%: pest or weed control at 125 g/ha ([4]; post-emergence, Postemergence, scale 0 to 100 (0 no effect, 100 complete control), read-out: Goosegrass plant response rating) | pest or weed control at 250 g/ha ([5]; post-emergence, Postemergence, 250 g ai/ha, scale 0 to 100, read-out: Plant response rating, Johnsongrass)
70%: pest or weed control at 62 g/ha [2, 8] | pest or weed control at 31 g/ha [3, 10] | pest or weed control at 62 g/ha [6, 16]
60%: pest or weed control at 62 g/ha ([1]; 62 g ai/ha) | pest or weed control at 31 g/ha [2, 8]
90%: pest or weed control at 31 g/ha [3, 9]

Reference: patent publication US8802597B2, “Herbicidal pyrimidines” (E I du Pont de Nemours and Company, priority 2003, dated 2014)
